Data on 12 compounds can be found in US12065442B2, “Tropomyosin receptor kinase (TRK) degradation compounds and methods of use” (Cullgen (Shanghai), Inc., priority 2018, dated 2024).

The test deals with KM12 cells. Nature of the test: Cell viability assay (CellTiter-Glo) in KM12 cells. In kind it is cell-based. Particulars: Homo sapiens, 72 h; Table 2; KM12 cell viability, CellTiter-Glo, 3 days; read-out: IC50. For orientation: ATP-based viability assays read luminescence as a measure of living cells.
In general, IC50 refers to the concentration needed to halve the response being measured. `O=C1CCC(N2C(=O)c3cccc(NCCCCCCCC(=O)N4CCN(c5cccc(-c6cnc7ccc(N8CCC[C@@H]8c8cccc(F)c8)nn67)n5)CC4)c3C2=O)C(=O)N1` (stereo partly drawn) [CPD-024, 2-(2,6-Dioxopiperidin-3-yl)-4-((8-(4-(6-(6-((R)-2-(3-fluorophenyl)pyrrolidin-1-yl)imidazo[1,2-b]pyridazin-3-yl)pyridin-2-yl)piperazin-1-yl)-8-oxooctyl)amino)isoindoline-1,3-dione]: the IC50 was found to be 10 nM.
Regarding `O=C1CCC(N2C(=O)c3cccc(NCCOCCOCCOCCOCCOCCC(=O)N4CCN(c5cccc(-c6cnc7ccc(N8CCC[C@@H]8c8cccc(F)c8)nn67)n5)CC4)c3C2=O)C(=O)N1` (stereo partly drawn) [CPD-025, 2-(2,6-Dioxopiperidin-3-yl)-4-((18-(4-(6-(6-((R)-2-(3-fluorophenyl)pyrrolidin-1-yl)imidazo[1,2-b]pyridazin-3-yl)pyridin-2-yl)piperazin-1-yl)-18-oxo-3,6,9,12,15-pentaoxaoctadecyl)amino)isoindoline-1,3-dione], the IC50 worked out at 16.7 nM.
Consider `O=C1CCC(N2C(=O)c3cccc(NCCC(=O)N4CCN(c5cccc(-c6cnc7ccc(N8CCC[C@@H]8c8cccc(F)c8)nn67)n5)CC4)c3C2=O)C(=O)N1` (stereo partly drawn) [CPD-026, 2-(2,6-Dioxopiperidin-3-yl)-4-((3-(4-(6-(6-((R)-2-(3-fluorophenyl)pyrrolidin-1-yl)imidazo[1,2-b]pyridazin-3-yl)pyridin-2-yl)piperazin-1-yl)-3-oxopropyl)amino)isoindoline-1,3-dione], for which the IC50 came out at 82.3 nM.
Regarding `O=C1CCC(N2C(=O)c3cccc(NCCOCCOCCC(=O)N4CCN(c5cccc(-c6cnc7ccc(N8CCC[C@@H]8c8cccc(F)c8)nn67)n5)CC4)c3C2=O)C(=O)N1` (stereo partly drawn) [CPD-028, 2-(2,6-Dioxopiperidin-3-yl)-4-((2-(2-(3-(4-(6-(6-((R)-2-(3-fluorophenyl)pyrrolidin-1-yl)imidazo[1,2-b]pyridazin-3-yl)pyridin-2-yl)piperazin-1-yl)-3-oxopropoxy)ethoxy)ethyl)amino)isoindoline-1,3-dione], the IC50 was found to be 4.3 nM.
For the compound `Cc1ncsc1-c1ccc(CNC(=O)[C@@H]2C[C@@H](O)CN2C(=O)[C@@H](NC(=O)CCCCCCC(=O)N2CCN(c3cccc(-c4cnc5ccc(N6CCC[C@@H]6c6cccc(F)c6)nn45)n3)CC2)C(C)(C)C)cc1` [CPD-029, (2S,4R)-1-((S)-2-(8-(4-(6-(6-((R)-2-(3-Fluorophenyl)pyrrolidin-1-yl)imidazo[1,2-b]pyridazin-3-yl)pyridin-2-yl)piperazin-1-yl)-8-oxooctanamido)-3,3-dimethylbutanoyl)-4-hydroxy-N-(4-(4-methylthiazol-5-yl)benzyl)pyrrolidine-2-carboxamide], the IC50 was 74 nM.
Turning to `O=C1CCC(N2C(=O)c3cccc(NCCOCCC(=O)N4CCN(c5ccc(C(=O)Nc6n[nH]c7ccc(Cc8cc(F)cc(F)c8)cc67)c(NC6CCOCC6)c5)CC4)c3C2=O)C(=O)N1` (stereo not drawn) [CPD-030, N-(5-(3,5-Difluorobenzyl)-1H-indazol-3-yl)-4-(4-(3-(2-((2-(2,6-dioxopiperidin-3-yl)-1,3-dioxoisoindolin-4-yl)amino)ethoxy)propanoyl)piperazin-1-yl)-2-((tetrahydro-2H-pyran-4-yl)amino)benzamide], the IC50 amounted to 20.5 nM.
As to `O=C1CCC(N2C(=O)c3cccc(NCCOCCOCCOCCOCCC(=O)N4CCN(c5ccc(C(=O)Nc6n[nH]c7ccc(Cc8cc(F)cc(F)c8)cc67)c(NC6CCOCC6)c5)CC4)c3C2=O)C(=O)N1` (stereo not drawn) [CPD-031, N-(5-(3,5-Difluorobenzyl)-1H-indazol-3-yl)-4-(4-(1-((2-(2,6-dioxopiperidin-3-yl)-1,3-dioxoisoindolin-4-yl)amino)-3,6,9,12-tetraoxapentadecan-15-oyl)piperazin-1-yl)-2-((tetrahydro-2H-pyran-4-yl)amino)benzamide], the IC50 was found to be 68.5 nM.
Take `O=C1CCC(N2C(=O)c3cccc(NCCOCCOCCC(=O)N4CCN(c5ccc(C(=O)Nc6n[nH]c7ccc(Cc8cc(F)cc(F)c8)cc67)c(NC6CCOCC6)c5)CC4)c3C2=O)C(=O)N1` (stereo not drawn) [CPD-032, N-(5-(3,5-Difluorobenzyl)-1H-indazol-3-yl)-4-(4-(3-(2-(2-((2-(2,6-dioxopiperidin-3-yl)-1,3-dioxoisoindolin-4-yl)amino)ethoxy)ethoxy)propanoyl)piperazin-1-yl)-2-((tetrahydro-2H-pyran-4-yl)amino)benzamide]: the IC50 was 5.4 nM.
Turning to `Cc1ncsc1-c1ccc(CNC(=O)[C@@H]2C[C@@H](O)CN2C(=O)[C@@H](NC(=O)CCCCCCC(=O)N2CCN(c3ccc(C(=O)Nc4n[nH]c5ccc(Cc6cc(F)cc(F)c6)cc45)c(NC4CCOCC4)c3)CC2)C(C)(C)C)cc1` [CPD-033, (2S,4R)-1-((S)-2-(8-(4-(4-((5-(3,5-difluorobenzyl)-1H-indazol-3-yl)carbamoyl)-3-((tetrahydro-2H-pyran-4-yl)amino)phenyl)piperazin-1-yl)-8-oxooctanamido)-3,3-dimethylbutanoyl)-4-hydroxy-N-(4-(4-methylthiazol-5-yl)benzyl)pyrrolidine-2-carboxamide], the IC50 came out at 100 nM.
With `Cc1ncsc1-c1ccc(CNC(=O)[C@@H]2C[C@@H](O)CN2C(=O)[C@@H](NC(=O)CCCCCCCCC(=O)N2CCN(c3ccc(C(=O)Nc4n[nH]c5ccc(Cc6cc(F)cc(F)c6)cc45)c(NC4CCOCC4)c3)CC2)C(C)(C)C)cc1` [CPD-034, (2S,4R)-1-((S)-2-(10-(4-(4-((5-(3,5-Difluorobenzyl)-1H-indazol-3-yl)carbamoyl)-3-((tetrahydro-2H-pyran-4-yl)amino)phenyl)piperazin-1-yl)-10-oxodecanamido)-3,3-dimethylbutanoyl)-4-hydroxy-N-(4-(4-methylthiazol-5-yl)benzyl)pyrrolidine-2-carboxamide], the IC50 came out at 300 nM.
Take `Cc1ncsc1-c1ccc(CNC(=O)[C@@H]2C[C@@H](O)CN2C(=O)[C@@H](NC(=O)CCCCCCCCCC(=O)N2CCN(c3ccc(C(=O)Nc4n[nH]c5ccc(Cc6cc(F)cc(F)c6)cc45)c(NC4CCOCC4)c3)CC2)C(C)(C)C)cc1` [CPD-035, (2S,4R)-1-((S)-2-(11-(4-(4-((5-(3,5-Difluorobenzyl)-1H-indazol-3-yl)carbamoyl)-3-((tetrahydro-2H-pyran-4-yl)amino)phenyl)piperazin-1-yl)-11-oxoundecanamido)-3,3-dimethylbutanoyl)-4-hydroxy-N-(4-(4-methylthiazol-5-yl)benzyl)pyrrolidine-2-carboxamide]: the IC50 came to 300 nM.
Consider `Cc1ncsc1-c1ccc(CNC(=O)[C@@H]2C[C@@H](O)CN2C(=O)[C@@H](NC(=O)CCCC(=O)N2CCN(c3ccc(C(=O)Nc4n[nH]c5ccc(Cc6cc(F)cc(F)c6)cc45)c(NC4CCOCC4)c3)CC2)C(C)(C)C)cc1` [CPD-036, (2S,4R)-1-((S)-2-(5-(4-(4-((5-(3,5-Difluorobenzyl)-1H-indazol-3-yl)carbamoyl)-3-((tetrahydro-2H-pyran-4-yl)amino)phenyl)piperazin-1-yl)-5-oxopentanamido)-3,3-dimethylbutanoyl)-4-hydroxy-N-(4-(4-methylthiazol-5-yl)benzyl)pyrrolidine-2-carboxamide], for which the IC50 worked out at 300 nM.
